In patent publication US12121614B2, “Delayed release composition for peroral administration” (VICORE PHARMA AB, priority 2020, dated 2024):

Assay: Dissolution studies of C21 sodium salt in buffers of different pH
Type: physicochemical
Protocol: 50.7 mg of C21 sodium salt (Ardena, Riga, Latvia) was added to 900 mL of 0.09M carbonate buffer (pH 8.95) at a temperature of 37±3° C. with stirring. […] After 15 minutes of stirring, 2M acetic acid solution was added dropwise to provide a pH of 4.52. Evolution CO2 was noted. […] After additional stirring for a further 1.5 hours, 1M NaOH was added to increase pH to 6.8.
51.2 mg of C21 sodium salt was added to 900 mL of acetate buffer (pH 4.4) at the same temperature with stirring. […] After stirring for 1 hour, 1M NaOH solution was added dropwise to increase the pH to 7.2.
53.2 mg of C21 sodium salt was added to 900 mL 0.1M of HCl buffer (pH 1.0) at the same temperature with stirring. […] After 20 minutes of stirring, 1M NaOH solution was added dropwise to increase the pH to 4.5.
51.0 mg of C21 sodium salt was added to 900 mL of 0.1M citrate buffer (pH 4.42) at the same temperature with stirring. The added compound formed a thin slurry. It seemed that nothing had dissolved.
50.8 mg of C21 sodium salt was added to 900 mL of an acetate buffer (pH 4.49) at the same temperature. […] After stirring for 1 hour, a 1M NaOH solution was added dropwise to increase the pH to 6.8.

Compound: CCCCOC(=O)[N-]S(=O)(=O)c1sc(CC(C)C)cc1-c1ccc(Cn2ccnc2)cc1.[Na+] [C21 sodium salt]
- dissolution behaviour on addition (A) (50.7 mg in 900 mL 0.09M carbonate buffer pH 8.95, 37±3° C., stirring): dissolved instantly
- dissolution behaviour on addition (E) (50.8 mg in 900 mL acetate buffer pH 4.49, 37±3° C.): formed a thin slurry which floated on the surface
- dissolution behaviour on addition (D) (51.0 mg in 900 mL 0.1M citrate buffer pH 4.42, 37±3° C., stirring): formed a thin slurry. It seemed that nothing had dissolved
- dissolution behaviour on addition (B) (51.2 mg in 900 mL acetate buffer pH 4.4, 37±3° C., stirring): formed a thin slurry which was floated on the surface top
- dissolution behaviour on addition (C) (53.2 mg in 900 mL 0.1M HCl buffer pH 1.0, 37±3° C., stirring): dissolved instantly
- appearance after raising pH (A) ((A) 1M NaOH added to pH 6.8, stirring another 1.5 hours): no significant change in appearance (small white particles)
- appearance after acidification (A) ((A) 2M acetic acid added to pH 4.52, after stirring for 1 hour): formation of small white particles
- appearance after raising pH (B) ((B) after 1 hour, 1M NaOH added to pH 7.2): slurry became thinner and pieces became smaller and goo-like
- appearance after further stirring (B) ((B) pH 7.2, stirring another 1.5 hours): no significant change in appearance (small goo-like particles)
- precipitation after raising pH (C) ((C) after 20 minutes, 1M NaOH added to pH 4.5): no precipitation was observed
- appearance after further stirring (C) ((C) pH 4.5, after stirring for 2 hours): solution still was clear
- decomposition of C21 by UPLC (D) ((D) citrate buffer pH 4.42, end of the experiment (7 hours)): no decomposition
- appearance after further stirring (D) ((D) citrate buffer pH 4.42, stirring for 7 hours): no significant change in appearance
- decomposition of C21 by UPLC (E) ((E) acetate buffer pH 4.49 then pH 6.8, end of the experiment): no decomposition
- appearance after raising pH (E) ((E) after 1 hour, 1M NaOH added to pH 6.8): slurry became slightly thinner
- appearance after further stirring (E) ((E) pH 6.8, stirring another hour): no significant change in appearance
